Series [1] concerns the target T1, GSPT2 G566N (Homo sapiens, UniProt Q8IYD1, G566N).
T1 construct: expressed in transfected cells; host or cells: RKO cells, lentiviral transduction, puromycin-selected
Briefly: Western blot (HA-tag) of G-loop mutant GSPT2 in RKO cells. Type of series: cell-based. As to conditions: RKO cells stably overexpressing HA-GSPT2 G566N, 16 h; 10 μM FL2-14 or 10 nM CC-885. The protocol:
Figure 3 FL2-14 is a selective GSPT2 molecular glue degrader. (A) Structure of FL2-14 comprising fluorosulfate scaffold FL2 (black) and tail group modification 14 (blue). (B) DMSO-normalized quantitative proteomics after 16 h of treatment with FL2-14 (10 μM) in RKO WT (n = 2). […] (C) Structural alignment of AlphaFold models of GSPT1 (AF-P15170-F1-model_v4 in gray) and GSPT2 (AF-Q8IYD1-F1-model_v4 in blue). (D) Validation of GSPT2 degradation by FL2-14. […] (E) Dose–response of FL2-14 in RKO and HEK293T cells. Cells were treated with the FL2-14 (0 to 10 μM) for 16 h. (F) Degradation of GSPT2^WT or GSPT2^G566N.
Prediction of the G‐loop degron sequence in GSPT2
We first compiled all CRBN degron sequences with known crystal structures (Table S 2). We subsequently discarded 6UML as its degron sequence included an alanine instead of the typical glycine observed in the seventh amino acid residue of other degron sequences, leaving six degron sequences. We then scanned the latest AlphaFold structure of GSPT215 for a potential stretch of 10 amino acids that would align best with each degron sequence. We yielded the same stretch of amino acid residues from position 560 to 569 ([…]) and RMSD values under 0.5 Å.
Table S 2: List of crystal structures used for the computational prediction of the G‐loop degron sequence […]
PDB code Resolution (Å) Chain Segment Sequence Reference
Analysis of G‐loop mutation […]
(A western blot detects proteins with antibodies after separation by electrophoresis.)

Series [2] deals with RKO WT cells. As to conditions: method not stated for this control. The text has this: Prior to screening the compound library in the isogenic CPA, we assessed their CRBN binding affinities using a fluorescence-polarization-based competition assay with recombinant DDB1-CRBN and the fluorescent tracer 16 (Figure S2). […] We also assessed the cytotoxicity of the CRBN binders in RKO wild-type (WT) cells to determine the appropriate treatment concentration.
Assessment of gene expression and essentiality in RKO WT
Public datasets on the transcriptome and essentiality of a protein‐encoding gene for RKO (cell line ID: ACH‐000943) were retrieved from DepMap Public 23Q2 (https://depmap.org/portal/, accessed on 14 August 2023). […]
Fluorescence Polarization‐based competition assay
Fluorescence Polarization assays were performed in 384‐well, Low Volume, Black, Round Bottom, Polystyrene Nonbinding surface Microplates (Corning, #4514). […] Fluorescence polarization values were determined with a PerkinElmer Envision reader with FITC FP dual mirror and FITC FP 480 excitation filter and FITC FP 535 emission filters. Fluorescence polarization values of a 10x serial dilution (10 nM to 100 µM) of the test compounds were determined in triplicates. EC50 values were calculated with GraphPad Prism software (version 10.0.2) with a non‐linear fit function (4PL sigmoidal curve fit) adjusting the bottom constrain to the FP value of free tracer. […]

T1 sequence (Q8IYD1 whole entry G566N): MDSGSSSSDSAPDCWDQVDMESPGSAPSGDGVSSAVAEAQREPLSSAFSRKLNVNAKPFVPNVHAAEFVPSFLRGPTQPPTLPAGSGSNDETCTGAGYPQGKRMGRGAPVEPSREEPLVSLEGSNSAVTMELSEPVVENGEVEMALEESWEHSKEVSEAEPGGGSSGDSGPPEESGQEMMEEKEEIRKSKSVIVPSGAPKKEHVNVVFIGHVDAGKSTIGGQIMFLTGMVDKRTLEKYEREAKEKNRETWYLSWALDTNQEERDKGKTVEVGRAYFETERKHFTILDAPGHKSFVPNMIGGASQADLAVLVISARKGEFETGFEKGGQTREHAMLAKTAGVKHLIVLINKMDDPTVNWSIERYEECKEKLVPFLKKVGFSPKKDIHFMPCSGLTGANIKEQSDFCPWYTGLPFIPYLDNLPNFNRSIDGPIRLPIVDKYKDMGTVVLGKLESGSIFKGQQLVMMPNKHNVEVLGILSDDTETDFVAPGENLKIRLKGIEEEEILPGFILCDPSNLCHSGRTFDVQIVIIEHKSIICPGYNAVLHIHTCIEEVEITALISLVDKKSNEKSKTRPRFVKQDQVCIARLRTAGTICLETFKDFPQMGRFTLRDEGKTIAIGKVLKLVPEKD

For the compound `Cc1ccc(NC(=O)NCc2ccc3c(c2)CN(C2CCC(=O)NC2=O)C3=O)cc1Cl` (centres unmarked) [CC-885, reference compound], the “degradation of HA-tagged GSPT2 G566N (glycine of G-loop replaced by asparagine)” value in series [1] is listed as “rescued degradation of GSPT2”.

As for `Nc1cccc2c1C(=O)N(C1CCC(=O)NC1=O)C2=O` (centres unmarked) [Pomalidomide, reference compound], the “cytotoxicity to RKO WT” value in series [2] is given as “not cytotoxic”.

Source of the values: publication PMC10764104, “Discovery of Molecular Glue Degraders via Isogenic Morphological Profiling” (ACS Chemical Biology, 2023).
